Results: patent US12157730B2, “Heteroaryl derivative, method for producing same, and pharmaceutical composition comprising same as effective component” (VORONOI INC., priority 2019, dated 2024)

Molecular target: T1, Ba/F3 cell EGFR Exon20 ins NPH (Homo sapiens, UniProt P00533, INS773NPH)
T1 construct: expressed in transfected cells; host or cells: Ba/F3
Assay: Ba/F3 cell proliferation suppression, EGFR Exon20 ins NPH
Assay type: cell-based
Details: GI50 class; Ba/F3 cell line with NPH inserted at Exon20 of EGFR; 72 hours
Summary of the method: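 After 72 h compound exposure (twelve 3-fold steps, 0.3 nM–50 um final), live cells were measured by CellTiter-Glo luminescence and growth expressed as % of control to derive GI50. Cells were seeded at 3000–5000 per well a day earlier; Ba/F3 medium contained IL-3; three repeats.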

SMILES | Ba/F3 (NPH) Activity
C=CC(=O)Nc1cc(Nc2cc(N3OCC[C@H]3Cc3cccnc3)ncn2)c(OC)cc1N1CCC(N2C[C@H]3C[C@@H]2CO3)CC1 [compound 990, N-(2-(4-((1R,4R)-2-oxa-5-azabicyclo [2.2.1]heptane-5-yl)piperidine-1-yl)-4-methoxy-5-((6-((R)-3-(pyridine-3-ylmethyl)isoxazolidine-2-yl)pyrimidine-4-yl)amino)phenyl)acrylamide] | B (50 nM ≤ GI50 < 500 nM)
C=CC(=O)Nc1cc(Nc2cc(N3OCC[C@@H]3c3cccc(F)c3F)ncn2)c(OC)cc1N1CCC(N2CCN(C3COC3)CC2)CC1 [Example 195, N-(5-((6-((R)-3-(2,3-difluorophenyl)isoxazolidine-2-yl)pyrimidine-4-yl)amino)-4-methoxy-2-(4-(4-(oxetane-3-yl)piperazine-1-yl)piperidine-1-yl)phenyl) acrylamide] | A (GI50 < 50 nM)
C=CC(=O)Nc1cc(Nc2cc(N3OCC[C@@H]3c3cc(F)cc(Cl)c3)ncn2)c(OC)cc1N1CCC(N2CCN(C3CC3)[C@@H](C)C2)CC1 [Example 157, N-(5-((6-((R)-3-(3-chloro-5-fluorophenyl)isoxazolidine-2-yl)pyrimidine-4-yl)amino)-2-(4-((S)-4-cyclopropyl-3-methylpiperazine-1-yl)piperidine-1-yl)-4-methoxyphenyl) acrylamide] | A (GI50 < 50 nM)
C=CC(=O)Nc1cc(Nc2cc(N3OCC[C@@H]3c3cccc(Cl)c3C)ncn2)c(OC)cc1N1CCC(N2CCOCC2)CC1 [compound 486, N-(5-((6-((R)-3-(3-chloro-2-methylphenyl)isoxazolidine-2-yl)pyrimidine-4-yl)amino)-4-methoxy-2-(4-morpholinopiperidine-1-yl)phenyl)acrylamide] | A (GI50 < 50 nM)
C=CC(=O)Nc1cc(Nc2cc(N3OCC[C@@H]3c3cccc(Cl)c3F)ncn2)c(OC)cc1N1CCC(N2CCN(C3CCCC3)CC2)CC1 [Example 101, N-(5-((6-((R)-3-(3-chloro-2-fluorophenyl)isoxazolidine-2-yl)pyrimidine-4-yl)amino)-2-(4-(4-cyclopentylpiperazine-1-yl)piperidine-1-yl)-4-methoxyphenyl) acrylamide] | A (GI50 < 50 nM)
C=CC(=O)Nc1cc(Nc2cc(N3OCC[C@@H]3Cc3cccc(Cl)c3C)ncn2)c(OC)cc1N1CCC(N2C[C@@H]3C[C@H]2CO3)CC1 [compound 1029, N-(2-(4-((1S,4S)-2-oxa-5-azabicyclo [2.2.1]heptane-5-yl)piperidine-1-yl)-5-((6-((S)-3-(3-chloro-2-methylbenzyl)isoxazolidine-2-yl)pyrimidine-4-yl)amino)-4-methoxyphenyl) acrylamide] | A (GI50 < 50 nM)
C=CC(=O)Nc1cc(Nc2cc(N3OCC[C@@H]3c3ccc4ccccc4c3)ncn2)c(OC)cc1N1CCN(C)CC1 [compound 509, N-(4-methoxy-2-(4-methylpiperazine-1-yl)-5-((6-((R)-3-(naphthalene-2-yl)isoxazolidine-2-yl)pyrimidine-4-yl)amino)phenyl)acrylamide] | B (50 nM ≤ GI50 < 500 nM)
C=CC(=O)Nc1cc(Nc2cc(N3OCC[C@@H]3c3ccc(F)c(F)c3)ncn2)c(OC)cc1N1CCC(N2CCN(C(C)C)CC2)CC1 [compound 501, N-(5-((6-((R)-3-(3,4-difluorophenyl)isoxazolidine-2-yl)pyrimidine-4-yl)amino)-2-(4-(4-isopropylpiperazine-1-yl)piperidine-1-yl)-4-methoxyphenyl) acrylamide] | A (GI50 < 50 nM)
C=CC(=O)Nc1cc(Nc2cc(N3OCC[C@@H]3c3ccc(F)c(F)c3)ncn2)c(OC)cc1N1CCC(N2CCN(C3CCC3)CC2)CC1 [Example 186, N-(2-(4-(4-cyclobutylpiperazine-1-yl)piperidine-1-yl)-5-((6-((R)-3-(3,4-difluorophenyl)isoxazolidine-2-yl)pyrimidine-4-yl)amino)-4-methoxyphenyl) acrylamide] | A (GI50 < 50 nM)
C=CC(=O)Nc1cc(Nc2cc(N3OCC[C@@H]3c3ccccc3)ncn2)c(OC)cc1N1CCC(N2CCN(C3CCOCC3)CC2)CC1 [Example 102, N-(4-methoxy-5-((6-((R)-3-phenylisoxazolidine-2-yl)pyrimidine-4-yl)amino)-2-(4-(4-(tetrahydro-2H-pyran-4-yl)piperazine-yl)piperidine-yl)phenyl)acrylamide] | A (GI50 < 50 nM)
C=CC(=O)Nc1cc(Nc2cc(N3OCC[C@@H]3c3cccc(F)c3)ncn2)c(OC)cc1N1CCC(N2CCN(C(C)=O)CC2)CC1 [compound 741, N-(2-(4-(4-acetylpiperazine-1-yl)piperidine-1-yl)-5-((6-((R)-3-(3-fluorophenyl)isoxazolidine-2-yl)pyrimidine-4-yl)amino)-4-methoxyphenyl) acrylamide] | A (GI50 < 50 nM)
C=CC(=O)Nc1cc(Nc2cc(N3OCC[C@@H]3c3cccc(C#N)c3)ncn2)c(OC)cc1N1CCC(N2C[C@H]3C[C@@H]2CO3)CC1 [compound 389, N-(2-(4-((1R,4R)-2-oxa-5-azabicyclo[2.2.1]heptane-5-yl)piperidine-1-yl)-5-((6-((R)-3-(3-cyanophenyl)isoxazolidine-2-yl)pyrimidine-4-yl)amino)-4-methoxyphenyl) acrylamide] | A (GI50 < 50 nM)
C=CC(=O)Nc1cc(Nc2cc(N3OCC[C@@H]3Cc3cccnc3)ncn2)c(OC)cc1N1CCC(N2C[C@H]3C[C@@H]2CO3)CC1 [compound 987, N-(2-(4-((1R,4R)-2-oxa-5-azabicyclo [2.2.1]heptane-5-yl)piperidine-1-yl)-4-methoxy-5-((6-((S)-3-(pyridine-3-ylmethyl)isoxazolidine-2-yl)pyrimidine-4-yl)amino)phenyl)acrylamide] | C (500 nM ≤ GI50 < 5000 nM)

Other lines, results leading:

Ba/F3 (NPH) Activity | SMILES
A (GI50 < 50 nM) | C=CC(=O)Nc1cc(Nc2cc(N3OCC[C@@H]3c3ccc(F)cc3F)ncn2)c(OC)cc1N1C[C@H]2C[C@@H]1CN2CC [compound 385, N-(5-((6-((R)-3-(2,4-difluorophenyl)isoxazolidine-2-yl)pyrimidine-4-yl)amino)-2-((1R,4R)-5-ethyl-2,5-diazabicyclo[2.2.1]heptane-2-yl)-4-methoxyphenyl) acrylamide]
A (GI50 < 50 nM) | C=CC(=O)Nc1cc(Nc2cc(N3OCC[C@@H]3c3cc(F)cc(F)c3)ncn2)c(OC)cc1N1CCC(N2CCN(C)[C@@H](C)C2)CC1 [compound 760, N-(5-((6-((R)-3-(3,5-difluorophenyl)isoxazolidine-2yl)pyrimidine-4-yl)amino)-2-(4-((S)-3,4-dimethylpiperazine-1-yl)piperidine-1-yl)-4-methoxyphenyl) acrylamide]
A (GI50 < 50 nM) | C=CC(=O)Nc1cc(Nc2cc(N3OCC[C@@H]3c3cccc(C(F)(F)F)c3)ncn2)c(OC)cc1N(C)CCN(C)C [compound 449, N-(2-((2-(dimethylamino)ethyl)(methyl)amino)-4-methoxy-5-((6-((R)-3-(3-(trifluoromethyl)phenyl)isoxazolidine-2-yl)pyrimidine-4-yl)amino)phenyl)acrylamide]
C (500 nM ≤ GI50 < 5000 nM) | C=CC(=O)Nc1cc(Nc2cc(N3OCC[C@@H]3c3ccc(C)nc3)ncn2)c(OC)cc1N1C[C@H]2C[C@@H]1CN2CC [Example 51, N-(2-((1R,4R)-5-ethyl-2,5-diazabicyclo [2.2.1]heptane-2-yl)-4-methoxy-5-((6-((R)-3-(6-methylpyridine-3-yl)isoxazolidine-2-yl)pyrimidine-4-yl)amino)phenyl) acrylamide]
A (GI50 < 50 nM) | C=CC(=O)Nc1cc(Nc2cc(N3OCC[C@@H]3Cc3cc(F)cc(F)c3)ncn2)c(OC)cc1N(C)CCN(C)C [compound 1031, N-(5-((6-((S)-3-(3,5-difluorobenzyl)isoxazolidine-2-yl)pyrimidine-4-yl)amino)-2-((2-(dimethylamino)ethyl)(methyl)amino)-4-methoxyphenyl) acrylamide]
A (GI50 < 50 nM) | C=CC(=O)Nc1cc(Nc2cc(N3OCC[C@@H]3c3cc(F)cc(F)c3)ncn2)c(OC)cc1N1CCC(N2CCN(C(C)CC)CC2)CC1 (stereo partly drawn) [compound 894, N-(2-(4-(4-(sec-butyl)piperazine-1-yl)piperidine-1-yl)-5-((6-((R)-3-(3,5-difluorophenyl)isoxazolidine-2-yl)pyrimidine-4-yl)amino)-4-methoxyphenyl) acrylamide]
A (GI50 < 50 nM) | C=CC(=O)Nc1cc(Nc2cc(N3OCC[C@@H]3c3ccc(F)cc3F)ncn2)c(OC)cc1N1CCN(C2CCCC2)CC1 [compound 348, N-(2-(4-cyclopentylpiperazine-1-yl)-5-((6-((R)-3-(2,4-difluorophenyl)isoxazolidine-2-yl)pyrimidine-4-yl)amino)-4-methoxyphenyl) acrylamide]
A (GI50 < 50 nM) | C=CC(=O)Nc1cc(Nc2cc(N3OCC[C@@H]3c3cc(F)ccc3F)ncn2)c(OC)cc1N1CCC(N2CCN(C)CC2)CC1 [compound 765, N-(5-((6-((R)-3-(2,5-difluorophenyl)isoxazolidine-2-yl)pyrimidine-4-yl)amino)-4-methoxy-2-(4-(4-methylpiperazine-1-yl)piperidine-1-yl)phenyl)acrylamide]
A (GI50 < 50 nM) | C=CC(=O)Nc1cc(Nc2cc(N3OCC[C@@H]3c3cc(F)cc(F)c3)ncn2)c(OC)cc1N1CCC(N2CCO[C@@H](C)C2)CC1 [compound 757, N-(5-((6-((R)-3-(3,5-difluorophenyl)isoxazolidine-2-yl)pyrimidine-4-yl)amino)-4-methoxy-2-(4-((S)-2-methylmorpholino)piperidine-1-yl)phenyl) acrylamide]
A (GI50 < 50 nM) | C=CC(=O)Nc1cc(Nc2cc(N3OCC[C@@H]3c3ccc(F)cc3F)ncn2)c(OC)cc1N1CCN(C)CC1 [compound 326, N-(5-((6-((R)-3-(2,4-difluorophenyl)isoxazolidine-2-yl)pyrimidine-4-yl)amino)-4-methoxy-2-(4-methylpiperazine-1-yl)phenyl)acrylamide]
